Measured values taken from patent US20130023504A1, “Modulation of Prostaglandin/Cyclooxygenase Metabolic Pathways” (HUNTER-FLEMING LIMITED, priority 2006, published 2013).
Marks after values point to notes of the source that are not given here.

Key:
Type in all cases: cell-based
human PBMC = assay: PG levels (PGE2, PGD2, 15d-PGJ2) in culture medium of human PBMC cultured with and without TNF-α, EIA (Example 3); conditions: without TNF-α
Method: (§1) Whole blood was collected from donors in EDTA-supplemented pouches at the Etablissement Français du Sang (Brest, France). The PBMC were isolated then from whole blood under sterile conditions within 36 hours after collection. Gradient density centrifugation was carried out on Ficoll (Eurobio). After washing in RPMI 1640 medium (Eurobio), cells were suspended in RPMI 1640 medium supplemented with 10% heat-inactivated fetal calf serum (Eurobio), 2 mM glutamine (D. Dutscher), 100 U of penicillin/ml (D. Dutscher), and 100 μg of streptomycin/ml (D. Dutscher). Monocytes were selected by plastic adherence for 1 h and approximately 10^7 cells were plated in 6-well tissue culture plates (3 mL medium per well). All incubations were performed in a humidified incubator at 37° C. and 5% CO2. Cells were recovered and dispersed in 2 ml fresh incubation medium supplemented with either 7β-hydroxyEPIA, 7β-hydroxy-DHEA, or 7α-hydroxy-DHEA (in 20 μL ethanol) in the presence or absence of 0.01 μg/mL TNF-α (Sigma-Aldrich). Control incubations contained 20 μl ethanol but no steroid. Supernatants were collected after 4 h and 24 hours incubations for measurement of their PG contents and cells were used for subsequent RNA isolation. A single step extraction method using the Trizol Reagent (Invitrogen, Cergy-Pontoise, France) provided total RNA.
Commercially available EIA kits were used for the determination of PGE2 levels (Oxford Biomedical Research, UK) and 15d-PGJ2 levels (Assay designs, Euromedex, France) in culture media. Measurement of PGD2 levels was obtained using the prostaglandin D2-MOX EIA kit (Cayman Chemical, Euromedex). In this case, and prior to assay, the fresh samples were immediately treated with the MOX-HCl reagent, which converted PGD2 into PGD2-MOX, thus preventing any further chemical degradation.
(§2) All assays were carried out in triplicate and results were plotted as mean±S.E.M. One-way analysis of variance was performed followed by Duncan's multiple range tests in order to compare the differences between groups. Differences were considered statistically significant when p<0.05.

COX-2 mRNA = COX-2 mRNA in human PBMC with and without TNF-α, quantitative RT-PCR; conditions: without TNF-α
Method: as §1
(§3) cDNAs were synthesized from TURBO DNase I—treated RNA (Ambion, Huntingdon, UK) using the Superscript first strand synthesis system kit (Invitrogen). RT-PCR amplification mixtures (50 μL) contained 2.5× RealMaster Mix/20×SYBR solution (11.25 μL) (Eppendorf, Le Pecq, France) and 200 nM forward and reverse primers. Reactions were run on a RealPlex ep gradient S mastercycler (Eppendorf). The cycling conditions were 10 minutes at 95° C. and 45 cycles at 95° C., 55° C. and 68° C. for 15 seconds, 30 seconds and 30 seconds, respectively. Each assay included a standard curve of four serial dilution points of control cDNA. The HPRT1 housekeeping gene was used for quantification. All oligonucleotide primers (Table 2) were synthesized by Genecust/Distribio (Evry, France). The specificity of the amplified product was monitored by examining the melting curve of the product and confirmed by analysis on agarose gel electrophoresis.
as §2

m-PGES1 mRNA = m-PGES1 mRNA in human PBMC with and without TNF-α, quantitative RT-PCR; conditions: without TNF-α
Method: as §1, §3, §2

[1] = tested on: rat spinal cord motor neurones; assay: Neurite growth of spinal cord motor neurones in primary culture (anti β-Tubulin, In Cell Analyzer)
Method: Rat spinal motor neurones were prepared according to the method described by Martinou et al., 1992 (Martinou J C, Martinou I, Kato AC Cholinergic differentiation factor (CDF/LIF) promotes survival of isolated rat embryonic motoneurons in vitro. Neuron. 1992 April; 8(4):737-44). Briefly, pregnant female Wistar rats of 15 days gestation, were killed by cervical dislocation and the foetuses were removed from the uterus. Their spinal cords were removed and placed in ice-cold medium of Leibovitz (L15, Invitrogen, 11415-049) containing 1% of bovine serum albuminutes (BSA fatty acid free, Eurobio, Les Ulis, France, GXXBSA01-65). Meninges were carefully removed.
The spinal motor neurones were dissociated by trypsinisation for 20 minutes at 37° C. (trypsin EDTA 10× Invitrogen 15400054) diluted in PBS without calcium and magnesium (Invitrogen 2007-03). The reaction was stopped by the addition of Dulbecco Modified Eagle's Media (DMEM, Invitrogen 21969-035) containing DNase I grade II (0.1 mg/ml Roche diagnostic 104159) and 10% foetal calf serum (FCS, Invitrogen 10270098). The suspension was then mechanically dissociated by 3 passages through a 10 ml pipette. Cells were then centrifuged at 580 g for 10 minutes at room temperature. The pellet of dissociated cells was re-suspended in L15 medium and the resulting suspension was enriched in motor neurones by centrifugation at 180×g for 10 minutes at room temperature on a layer of BSA solution (3.5%) in L15 medium. The supernatant was discarded and the pellet was re-suspended in L15 medium supplemented with DNase I (1%). Then the suspension was layered over a cushion of Optiprep (d: 1.06 g/ml; Abcys, Paris, France; 1030061) and centrifuged at 335×g for 15 minutes at room temperature. The upper phase, containing the purified motor neurones, was collected, re-suspended with L15 medium and centrifuged at 800×g for 10 minutes at room temperature. The cell pellet was finally resuspended in a defined culture medium consisting of neurobasal medium supplemented with 2% B27, 2 mM L-Glutamine and Penicillin 50 Ul/ml-Streptomycin 50 μg/ml. Viable cells were counted in a Neubauer cytometer using the trypan blue exclusion test (Sigma T8154) then plated at 30 000 cells/well in 96 well-plates (pre-coated with poly-1-lysine; Nunclon, Invitrogen P5899) and cultured at 37° C. in a humidified air (95%) CO2 (5%) atmosphere.
The culture medium was changed into a defined culture medium after a 12 hours incubation period following the conditions described below:
BDNF 50 ng/ml and 10 ng/ml (in 0.1% DMSO)
After 6 hours, 12 hours and 24 hours of incubation with, cells were fixed for 5 minutes in an ethanol/acetic acid solution (95%/5%) at −20° C. and rinsed 3 times in PBS.
Motor neurones and sensory neurones were labelled by monoclonal anti β-Tubulin antibody (Sigma T8660) diluted at 1:400 in incubation solution (PBS with 5% of FCS and 0.1% of saponin, Sigma S-7900). This antibody specifically labels neurone cell bodies and neurites.
After 2 hours of incubation, the cells were washed in PBS and incubated with Alexa Fluor 488 goat anti mouse IgG (Molecular Probes A11001) diluted at 1:300 in incubation solution to reveal the 8-Tubulin III antibodies.
Analysis of the total length of neurones labelled with anti β-Tubulin antibodies (neurones) were carried out using In Cell Analyzer 1000 3.2.Workstation software.
The results were expressed in percentage compared to the vehicle. Comparison of groups was carried out using the unpaired T test.

**Q.** With `CC12CCC3C(C1CCC2=O)[C@@H](O)C=C1C[C@@H](O)CCC13C` (stereo partly drawn) [7β-hydroxy-DHEA] as the molecule, how does the 15d-PGJ2 (human PBMC; 1 nM, 4 h) read?
**A.** The 15d-PGJ2 was 0.45 ± 0.016 ng/mL.

**Q.** What about the PGD2 (human PBMC; 1 nM, 4 h) of the same molecule?
**A.** The PGD2 was 0.18 ± 0.002 ng/mL.

**Q.** And the PGE2 (human PBMC; 1 nM, 4 h)?
**A.** Its PGE2 is 0.22 ± 0.003 ng/mL.

**Q.** And the 15d-PGJ2 (human PBMC; 1 nM, 24 h)?
**A.** The 15d-PGJ2 was 0.66 ± 0.013^a ng/mL.

**Q.** And the PGD2 (human PBMC; 1 nM, 24 h)?
**A.** Its PGD2 is 0.21 ± 0.009^a ng/mL.

**Q.** And the PGE2 (human PBMC; 1 nM, 24 h)?
**A.** Its PGE2 is 0.22 ± 0.003 ng/mL.

**Q.** And the 15d-PGJ2 (human PBMC; 10 nM, 4 h)?
**A.** The 15d-PGJ2 was 0.40 ± 0.014 ng/mL.

**Q.** What about the PGD2 (human PBMC; 10 nM, 4 h) of the same molecule?
**A.** The PGD2 was 0.14 ± 0.001 ng/mL.

**Q.** And the PGE2 (human PBMC; 10 nM, 4 h)?
**A.** Its PGE2 is 0.22 ± 0.013 ng/mL.

**Q.** What about the 15d-PGJ2 (human PBMC; 10 nM, 24 h) of the same molecule?
**A.** The 15d-PGJ2 was 0.62 ± 0.008^a ng/mL.

**Q.** What about the PGD2 (human PBMC; 10 nM, 24 h) of the same molecule?
**A.** The PGD2 was 0.24 ± 0.001^a ng/mL.

**Q.** What about the PGE2 (human PBMC; 10 nM, 24 h) of the same molecule?
**A.** The PGE2 was 0.24 ± 0.002 ng/mL.

**Q.** What about the 15d-PGJ2 (human PBMC; 100 nM, 4 h) of the same molecule?
**A.** Its 15d-PGJ2 is 0.42 ± 0.030 ng/mL.

**Q.** What about the PGD2 (human PBMC; 100 nM, 4 h) of the same molecule?
**A.** Its PGD2 is 0.19 ± 0.008 ng/mL.

**Q.** And the PGE2 (human PBMC; 100 nM, 4 h)?
**A.** Its PGE2 is 0.22 ± 0.002 ng/mL.

**Q.** What about the 15d-PGJ2 (human PBMC; 100 nM, 24 h) of the same molecule?
**A.** Its 15d-PGJ2 is 0.56 ± 0.020^a ng/mL.

**Q.** What about the PGD2 (human PBMC; 100 nM, 24 h) of the same molecule?
**A.** The PGD2 was 0.34 ± 0.025^a ng/mL.

**Q.** What about the PGE2 (human PBMC; 100 nM, 24 h) of the same molecule?
**A.** The PGE2 was 0.24 ± 0.004 ng/mL.

**Q.** And the “COX-2 (mRNA), mRNA production relative to controls” value (COX-2 mRNA; 1 nM, 4 h)?
**A.** Its value is 1.20 ± 0.179.

**Q.** And the “COX-2 (mRNA), mRNA production relative to controls” value (COX-2 mRNA; 1 nM, 24 h)?
**A.** Its value is 1.76 ± 0.672.

**Q.** And the “COX-2 (mRNA), mRNA production relative to controls” value (COX-2 mRNA; 10 nM, 4 h)?
**A.** Its value is 1.33 ± 0.039.

**Q.** What about the “COX-2 (mRNA), mRNA production relative to controls” value (COX-2 mRNA; 10 nM, 24 h) of the same molecule?
**A.** The value was 1.54 ± 0.630.

**Q.** What about the “COX-2 (mRNA), mRNA production relative to controls” value (COX-2 mRNA; 100 nM, 4 h) of the same molecule?
**A.** The value was 5.09 ± 1.166^a.

**Q.** And the “COX-2 (mRNA), mRNA production relative to controls” value (COX-2 mRNA; 100 nM, 24 h)?
**A.** The value was 2.78 ± 0.580^a.

**Q.** What about the “mPGES1 (mRNA), mRNA production relative to controls” value (m-PGES1 mRNA; 1 nM, 4 h) of the same molecule?
**A.** Its value is 0.43 ± 0.057^b.

**Q.** What about the “mPGES1 (mRNA), mRNA production relative to controls” value (m-PGES1 mRNA; 1 nM, 24 h) of the same molecule?
**A.** Its value is 1.94 ± 0.422^a.

**Q.** And the “mPGES1 (mRNA), mRNA production relative to controls” value (m-PGES1 mRNA; 10 nM, 4 h)?
**A.** Its value is 0.67 ± 0.071^b.

**Q.** What about the “mPGES1 (mRNA), mRNA production relative to controls” value (m-PGES1 mRNA; 10 nM, 24 h) of the same molecule?
**A.** The value was 1.64 ± 0.338^a.

**Q.** And the “mPGES1 (mRNA), mRNA production relative to controls” value (m-PGES1 mRNA; 100 nM, 4 h)?
**A.** The value was 0.82 ± 0.085^b.

**Q.** And the “mPGES1 (mRNA), mRNA production relative to controls” value (m-PGES1 mRNA; 100 nM, 24 h)?
**A.** Its value is 1.64 ± 0.322^a.

B1: BDNF: Brain derived nerve growth factor, a specific growth factor for motor neurones; reference compound (protein, UniProt P23560 19-247, looked up)
Neurotrophic factor BDNF …: APMKEANIRGQGGLAYPGVRTHGTLESVNGPKAGSRGLTSLADTFEHVIEELLDEDQKVRPNEENNKDADLYTSRVMLSSQVPLEPPLLFLLEEYKNYLDAANMSMRVRRHSDPARRGELSVCDSISEWVTAADKKTAVDMSGGTVTVLEKVPVSKGQLKQYFYETKCNPMGYTKEGCRGIDKRHWNSQCRTTQSYVRALTMDSKKRIGWRFIRIDTSCVCTLTIKRGR
**Q.** Which results are given for B1?
**A.** Neurites length per field, % Vehicle ([1]; 10 ng/ml, 6 hours): 193%; Neurites length per field, Mean ([1]; 10 ng/ml, 6 hours): 489.5 μm; Neurites length per field, % Vehicle ([1]; 10 ng/ml, 12 hours): 173%; Neurites length per field, Mean ([1]; 10 ng/ml, 12 hours): 731.3 μm; Neurites length per field, % Vehicle ([1]; 10 ng/ml, 24 hours): 170%; Neurites length per field, Mean ([1]; 10 ng/ml, 24 hours): 366.1 μm; Neurites length per field, % Vehicle ([1]; 50 ng/ml, 6 hours): 180%; Neurites length per field, Mean ([1]; 50 ng/ml, 6 hours): 457.2 μm; Neurites length per field, % Vehicle ([1]; 50 ng/ml, 12 hours): 152%; Neurites length per field, Mean ([1]; 50 ng/ml, 12 hours): 643.7 μm; Neurites length per field, Mean ([1]; 50 ng/ml, 24 hours): 293.6 μm
